Measurements as given in patent publication US11072601B2, “μ-opioid receptor agonist and preparation method therefor and use thereof in field of medicine” (SHANGHAI SYNERGY PHARMACEUTICAL SCIENCES CO., LTD., priority 2017, dated 2021).
pEC50: −log10 of the molar value.

Experiments:
[1] = target: T1, cAMP pathway of MOR receptor (Homo sapiens, UniProt P35372); assay: cell-based; conditions: cAMP Hunter HEK293 cells, forskolin-induced cAMP; read-out: EC50 of cAMP levels affected by agonistic effect on MOR
T1 construct: host or cells: HEK293 (cAMP Hunter cell line)
Excerpt: The purpose of this experiment was to test the agonistic effect of the compounds of the invention on the cAMP pathway of MOR and to evaluate the in vitro activity of the compounds according to EC50.
In this experiment, HitHunter cAMP Assay EFC technology of DiscoverX was used to measure the cAMP level in cells and monitor the functional status of G-protein coupled receptors (GPCRs).
The amount of signal produced was directly proportional to the amount of cAMP in the cell.
The MOR receptor was bound to the inhibitory Gαi protein, so forskolin (for inducing cAMP signal) was used to induce cAMP expression in the experiment, and the inhibitory effect of the compounds on the above induction was measured.
The cAMP Hunter cell line (HEK293, DiscoverX) was removed from the freezer and expanded according to the Cell Standard Operating Procedure (SOP), 20 μL was collected and inoculated into a 384-well microplate and incubated at 37° C. overnight.
The HitHunter cAMP Assay test kit (DiscoverX, 90-0075sm) was used, the kit contained cAMP buffer, cAMP detection solution, and cAMP working solution A.
The formula was used to calculate the percentage of signal activity per well=100%×(1−(average RLU of the test samples−average RLU of the MAX controls)/(average RLU of the solvent controls−average RLU of the MAX controls)). wherein, the MAX control referred to the fluorescence signal value of the endorphin solution, and the solvent control referred to the fluorescence signal value of DMSO. The DiscoveRx CBIS data analysis workstation (ChemInnovation, CA) was used to perform statistical analysis of the percentage of signal activity and the concentration of the compounds by the agonist formula (comes with the software, universal) to calculate the EC50 value.

[2] = target: T2, μ opioid receptor (MOR) (Homo sapiens, UniProt P35372); assay: cell-based; conditions: HEK293 stably expressing μ opioid receptor, FLIPR calcium
T2 construct: host or cells: HEK293
Method: The purpose of the experiment was to test the agonistic effects of the compounds of the present invention on μ opioid receptor (MOR), κ opioid receptor (KOR) and δ opioid receptor (DOR), and to evaluate in vitro activity of the compounds according to the half-maximal effect concentration (EC50).
This test was performed using HEK293 cell lines (the stably expressed cell lines were provided by WuXi AppTec) which stably expressed μ opioid receptor, δ opioid receptor or κ opioid receptor respectively. […] The cells were centrifuged at 1000 rpm for 5 minutes at room temperature to precipitate. The supernatant was sucked out, be careful not to suck out cells. The precipitate was flicked into the loose cells and resuspend in 45 ml DMEM medium. The Vi-CELL XR automatic cell viability detector (BECKMAN COULTER) was used to count the cells, and the cell concentration was adjusted to 10×10^5 cells/ml based on the counting results.
Preparation of probenecid mother solution: 1 ml of FLIPR test solution was added to 77 mg probenecid to prepare a 250 mM solution. The solution was freshly prepared just before use.
The solution was freshly prepared just before use.
The cell plate prepared above was removed from the incubator and 20 ul 2× Fluo-4 Direct™ buffer was added thereto. The final volume in the cell plate was […]. The plate was incubated at 37° C., under 5% CO2 for 50 minutes, and incubated at room temperature for 10 minutes, then was placed into the FLIPR instrument (MD), and the compound plate and pipette box was placed into. The protocol was run on the […] platform, 10 μl of positive drug or the test compound was transfered to the cell plate from the compound plate, and the fluorescent signal was read.
The signal value generated by each well was calculated, and the calculation formula was that: the activity %=(signal value of the test compound−signal value of the solvent)/(signal value of the positive drug−signal value of the solvent).

[3] = target: T3, β-arrestin signaling pathway of MOR (Homo sapiens, UniProt P35372); assay: cell-based; conditions: PathHunter HEK293 cells, relative to endorphin MAX control
T3 construct: host or cells: HEK293 (PathHunter cell line)

[4] = test system: SD rats; assay: Respiratory depression in rats, arterial blood gas PCO2; format: in vivo
Excerpt: 8-week-old male SD rats weighing 200 g-300 g were used as experimental animals to determine the effect of the compound of Example H05, the compound of Example H08, the compound of Example H10, the compound of Example H16, the compound of Example H17, the compound of Example H18, the compound of Example H21, and the compound of Example H24 on the partial pressure of blood in rats after intravenous administration. The effects of the compounds of the invention on respiratory depression were investigated.
After the rats were acclimatized to the experimental environment for 3 days, each animal was anesthetized with sodium pentobarbital (50-60 mg/kg, ip), and then the right common carotid artery was isolated and the unilateral carotid artery tube-bury surgery was performed (PE60, ID*OD*length as 0.76 mm*1.22 mm*20 cm, buried into the artery 1 cm deep, and the tube was filled with heparin sodium tube sealing solution).

T3 sequence (P35372 whole entry): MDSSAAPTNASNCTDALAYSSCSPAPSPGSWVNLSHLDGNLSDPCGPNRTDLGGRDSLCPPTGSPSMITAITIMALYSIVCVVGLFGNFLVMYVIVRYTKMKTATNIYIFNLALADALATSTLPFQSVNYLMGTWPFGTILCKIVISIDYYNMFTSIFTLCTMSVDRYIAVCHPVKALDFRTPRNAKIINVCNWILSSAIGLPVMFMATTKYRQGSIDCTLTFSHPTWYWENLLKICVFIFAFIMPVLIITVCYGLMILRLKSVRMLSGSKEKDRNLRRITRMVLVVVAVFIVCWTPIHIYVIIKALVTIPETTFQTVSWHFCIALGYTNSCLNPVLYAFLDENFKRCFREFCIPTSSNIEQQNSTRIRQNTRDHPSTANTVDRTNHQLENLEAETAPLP
T1 sequence (P35372 whole entry): as above
T2 sequence (P35372 whole entry, species assumed): as the sequence (P35372 whole entry) above

SMILES: CNc1ccccc1CNCCC1(c2ccccn2)CCOC2(CCCC2)C1 (centres unmarked) [Example H03]
- pEC50 [1]: 8.36
- pEC50 [2]: 8.19
- Emax [3]: 3.19%

SMILES: COc1ccsc1CNC(C)CC1(c2ccccn2)CCOC2(CCCC2)C1 (centres unmarked) [Example H27]
- pEC50 [1]: 7.92
- pEC50 [2]: 8.40
- Emax [3]: 3.32%

SMILES: COc1ccc2c(c1)CN(CCC1(c3ccccn3)CCOC3(CCCC3)C1)CC2 (centres unmarked) [Example H20, 7-methoxy-2-[2-(9-pyridin-2-yl-6-oxa-spiro[4.5]decan-9-yl)-ethyl]-1,2,3,4-tetrahydroisoquinoline]
- pEC50 [1]: 7.70
- pEC50 [2]: 8.45
- Emax [3]: 2.12%

SMILES: Cc1ccc(CNCCC2(c3ccccn3)CCOC3(CCCC3)C2)c(OC(F)(F)F)c1 (centres unmarked) [Example H12, (4-methyl-2-trifluoromethoxybenzyl)-[2-(9-(pyridin-2-yl)-6-oxaspiro[4.5]decan-9-yl)ethyl]amine]
- pEC50 [1]: 8.26
- pEC50 [2]: 8.69
- Emax [3]: 32.2%

SMILES: Cc1c(Cl)cccc1CNCCC1(c2ccc(F)cn2)CCOC2(CCCC2)C1 (centres unmarked) [Example H32, {2-[9-(5-fluoro-pyridin-2-yl)-6-oxa-spiro[4.5]decan-9-yl]-ethyl}-(3-chloro-2-methyl-benzyl)-amine]
- pEC50 [1]: 7.87
- pEC50 [2]: 8.13
- Emax [3]: 11.7%

SMILES: Fc1ccc(C2(CCNCc3sccc3Cl)CCOC3(CCCC3)C2)nc1 (centres unmarked) [Example H30, {2-[9-(5-fluoro-pyridin-2-yl)-6-oxa-spiro[4.5]decan-9-yl]-ethyl}-((3-chlorothiophen-2-yl)-methyl)-amine]
- pEC50 [1]: 7.76
- pEC50 [2]: 8.25
- Emax [3]: 2.91%

SMILES: FC(F)(F)Oc1c(Br)cccc1CNCCC1(c2ccccn2)CCOC2(CCCC2)C1 (centres unmarked) [Example H28, (3-bromo-2-trifluoromethoxybenzyl)-[2-(9-pyridin-2-yl-6-oxa-spiro[4.5]decan-9-yl)-ethyl]-amine]
- pEC50 [1]: 7.85
- pEC50 [2]: 8.20
- Emax [3]: 6.26%

SMILES: COc1[nH]ncc1CNCCC1(c2ccccn2)CCOC2(CCCC2)C1 (centres unmarked) [Example H25, [(5-methoxy-1H-pyrazol-4-yl)methyl]-[2-(9-(pyridin-2-yl)-6-oxaspiro[4.5]decan-9-yl)ethyl] amine]
- pEC50 [1]: 7.89
- pEC50 [2]: 8.69
- Emax [3]: 3.2%

SMILES: Fc1cnc(C2(CCNCc3ccccc3OC(F)(F)F)CCOC3(CCCC3)C2)c(Cl)c1 (centres unmarked) [Example H09, (2-trifluoromethoxybenzyl)-[2-(9-(3-chloro-5-fluoropyridin-2-yl)-6-oxaspiro[4.5]decan-9-yl)ethyl]amine]
- pEC50 [1]: 8.07
- pEC50 [2]: 8.39
- Emax [3]: 3.28%

SMILES: Oc1ccc(CNCCC2(c3ccccn3)CCOC3(CCCC3)C2)c(OC(F)(F)F)c1 (centres unmarked) [Example H15, 4-{[2-(9-(pyridin-2-yl)-6-oxaspiro[4.5]decan-9-yl)ethylamine]methyl}-3-trifluoromethoxyphenol]
- pEC50 [1]: 8.37
- pEC50 [2]: 8.48
- Emax [3]: 15.8%

SMILES: CN1CC[C@]23c4c5ccc(O)c4O[C@H]2[C@@H](O)C=C[C@H]3[C@H]1C5 [morphine, reference compound]
- PCO2, 5 min before administration ([4]; arterial blood, before administration): 36.41 ± 0.98 mmHg
- PCO2, 5 min after administration ([4]; intravenous single dose 0.3 mg/kg (morphine 24 mg/kg), 5 min): 37.26 ± 1.18 mmHg
- PCO2, 30 min after administration ([4]; intravenous single dose 0.3 mg/kg (morphine 24 mg/kg), 30 min): 40.94 ± 2.78 mmHg
- PCO2, 60 min after administration ([4]; intravenous single dose 0.3 mg/kg (morphine 24 mg/kg), 60 min): 58.63 ± 3.53 mmHg
- PCO2, 120 min after administration ([4]; intravenous single dose 0.3 mg/kg (morphine 24 mg/kg), 120 min): 56.9 ± 4.05 mmHg

SMILES: FC(F)(F)Oc1ccc(CNCCC2(c3ccccn3)CCOC3(CCCC3)C2)cc1 (centres unmarked) [Example H06, (4-trifluoromethoxybenzyl)-[2-(9-(pyridin-2-yl)-6-oxaspiro[4.5]decan-9-yl)ethyl]amine]
- pEC50 [1]: 7.93
- pEC50 [2]: 8.21
- Emax [3]: 0.66%

SMILES: FC(F)(F)c1ccsc1CNCCC1(c2ccccn2)CCOC2(CCCC2)C1 (centres unmarked) [Example H14, ((3-trifluoromethylthiophen-2-yl)methyl)-[2-(9-(pyridin-2-yl)-6-oxaspiro[4.5]decan-9-yl)ethyl]a mine]
- pEC50 [1]: 7.80
- pEC50 [2]: 8.68
- Emax [3]: 1.82%
